Assay [1] addresses pseudo-kinase domain (JH2) of human V617F mutant JAK2 (Homo sapiens (Human), UniProt O60674, F794H/V617F/W659A/W777A). In words: JAK2 LanthaScreen JH2-V617F Binding Assay. The conditions noted are these: 50 nM tracer, 1 hour at 25° C. How it is done:
Example C. JAK2 LanthaScreen JH2-V617F Binding Assay
(§1) JAK2 JH2-V617F binding assay utilizes pseudo-kinase domain (JH2, amino-acids 536-812 with 3 surface mutations W659A, W777A, F794H) of human V617F mutant JAK2 expressed as C-terminal His-Avi-tagged, biotinylated protein in a baculovirus expression system (BPS Bioscience, Catalog #79498). The assay was conducted in black 384-well polystyrene plates in a final reaction volume of 20 μL. JAK2 JH2-V617F (0.26 nM) was incubated with compounds (100 nL serially diluted in DMSO) in the presence of 50 nM Fluorescent JAK2-JH2 Tracer (MedChem Express Catalog #HY-102055) and 0.25 nM Streptavidin-Tb cryptate (Cisbio Part #610SATLB) in assay buffer (50 mM Tris, pH=7.5, 10 mM MgCl2, 0.01% Brij-35, 0.1% BSA, 1 mM EGTA, 5% Glycerol and 5 mM DTT). Non-specific binding was accessed in the presence of 2 mM ATP. After incubation for 1 hour at 25° C., LanthaScreen signals were read on a PHERAstar FS plate reader (BMG LABTECH). Data was analyzed with IDBS XLfit and GraphPad Prism 5.0 software using a four parameter dose response curve to determine IC50 for each compound.

Assay [2] concerns the target T1, catalytic domain (JH1) of human JAK2 (Homo sapiens (Human), UniProt O60674). In words: JAK2 HTRF Enzyme Activity Assay. The settings on record: ATP 30 μM; read-out: ENZ 30UMATP IC50. Type of assay: biochemical. How it is done: Example D. JAK2 HTRF Enzyme Activity Assay
JAK2 enzyme activity assays utilize catalytic domain (JH1, amino acids 808-1132) of human JAK2 expressed as N-terminal His-tagged protein in a baculovirus expression system (BPS Bioscience, Catalog #40450). The assays was conducted in black 384-well polystyrene plates in a final reaction volume of 20 μL. JAK2 (0.015 nM) was incubated with compounds (100 nL serially diluted in DMSO) in the presence of ATP (30 μM or 1 mM) and 500 nM Biotin-labeled EQEDEPEGDYFEWLE (SEQ ID NO.: 1) peptide (BioSource International, custom synthesis) in assay buffer (50 mM Tris, pH=7.5, 10 mM MgCl2, 0.01% Brij-35, 0.1% BSA, 1 mM EGTA, 5% Glycerol and 5 mM DTT) for 60 minutes at 25° C. The reactions were stopped by the addition of 10 μL of detection buffer (50 mM Tris, pH 7.8, 0.5 mg/mL BSA, 150 mM NaCl), supplemented with EDTA, LANCE Eu-W1024 anti-phosphotyrosine (PY20), (PerkinElmer, Catalog #AD0067) and Streptavidin SureLight APC (PerkinElmer Catalog #CR130-100), for a final concentration of 15 mM, 1.5 nM and 75 nM, respectively. HTRF signals were read after 30 minutes incubation at room temperature on a PHERAstar FS plate reader (BMG LABTECH). Data was analyzed with IDBS XLfit and GraphPad Prism 5.0 software using a four parameter dose response curve to determine IC50 for each compound.
Target sequence in this assay (O60674 808-1132): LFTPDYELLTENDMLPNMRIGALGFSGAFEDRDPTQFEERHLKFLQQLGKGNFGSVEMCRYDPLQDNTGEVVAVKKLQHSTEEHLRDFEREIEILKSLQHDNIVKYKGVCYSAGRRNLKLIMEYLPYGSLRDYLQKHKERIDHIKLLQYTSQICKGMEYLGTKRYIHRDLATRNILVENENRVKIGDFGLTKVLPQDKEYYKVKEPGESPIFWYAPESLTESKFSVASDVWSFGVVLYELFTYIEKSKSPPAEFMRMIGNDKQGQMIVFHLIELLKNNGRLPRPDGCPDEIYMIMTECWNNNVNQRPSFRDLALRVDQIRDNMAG

Assay [3] concerns the target T1, catalytic domain (JH1) of human JAK2. In words: JAK2 LanthaScreen JH1 Binding Assay. The settings on record: JAK2 JH1, 50 nM tracer, 2 hours at 25° C. As for the experimental part: Example A. JAK2 LanthaScreen JH1 Binding Assay
JAK2 JH1 binding assay utilizes catalytic domain (JH1, amino acids 826-1132) of human JAK2 expressed as N-terminal FLAG-tagged, biotinylated protein in a baculovirus expression system (Carna Biosciences, Product #08-445-20N). The assay was conducted in black 384-well polystyrene plates in a final reaction volume of 20 μL. JAK2 JH1 (1.5 nM) was incubated with compounds (100 nL serially diluted in DMSO) in the presence of 50 nM Fluorescent JAK2-JH1 Tracer and 0.5 nM Streptavidin-Tb cryptate (Cisbio Part #610SATLB) in assay buffer (50 mM Tris, pH=7.5, 10 mM MgCl2, 0.01% Brij-35, 0.1% BSA, 1 mM EGTA, 5% Glycerol and 5 mM DTT). Non-specific binding was accessed in the presence of 2 mM ATP. After incubation for 2 hours at 25° C., LanthaScreen signals were read on a PHERAstar FS plate reader (BMG LABTECH). Data was analyzed with IDBS XLfit and GraphPad Prism 5.0 software using a four parameter dose response curve to determine IC50 for each compound.
Target sequence in this assay (O60674 826-1132): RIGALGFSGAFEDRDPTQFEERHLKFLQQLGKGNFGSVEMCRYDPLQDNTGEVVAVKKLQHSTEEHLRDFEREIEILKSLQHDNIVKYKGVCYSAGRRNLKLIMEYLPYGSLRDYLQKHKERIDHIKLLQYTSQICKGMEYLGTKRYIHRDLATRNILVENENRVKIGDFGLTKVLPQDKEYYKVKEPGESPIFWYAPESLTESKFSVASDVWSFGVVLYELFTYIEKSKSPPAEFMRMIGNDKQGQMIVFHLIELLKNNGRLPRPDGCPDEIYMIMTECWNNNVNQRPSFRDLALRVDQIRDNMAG

Assay [4] deals with pseudo-kinase domain (JH2) of human Wild Type JAK2 (Homo sapiens (Human), UniProt O60674, F794H/W659A/W777A). In words: JAK2 LanthaScreen JH2-WT Binding Assay. The settings on record: 50 nM tracer, 1 hour at 25° C. As for the experimental part:
Example B. JAK2 LanthaScreen JH2-WT Binding Assay
as §1, with “JH2-WT” for “JH2-V617F”, “Wild Type” for “V617F mutant”, “#79463).” for “#79498).”, “JH2-WT (0.145” for “JH2-V617F (0.26”

Structures can show the parent of a compound that is named as a salt. Bounds are passed on as bounds.

pseudo-kinase domain (JH2) of human V617F mutant JAK2, sequence (O60674 536-812 V617F/W659A/W777A/F794H): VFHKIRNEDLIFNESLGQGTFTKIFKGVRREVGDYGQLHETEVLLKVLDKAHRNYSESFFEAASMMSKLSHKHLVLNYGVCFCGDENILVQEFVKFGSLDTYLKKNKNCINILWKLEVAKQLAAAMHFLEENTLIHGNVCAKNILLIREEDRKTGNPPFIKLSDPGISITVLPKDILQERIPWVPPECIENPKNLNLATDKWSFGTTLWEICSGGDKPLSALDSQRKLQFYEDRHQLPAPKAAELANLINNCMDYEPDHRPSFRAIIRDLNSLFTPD
pseudo-kinase domain (JH2) of human Wild Type JAK2, sequence (O60674 536-812 W659A/W777A/F794H): as the sequence (O60674 536-812 V617F/W659A/W777A/F794H) above, with F82V counted along it

As for `CCNC(=O)NC1CCC2(CC1)C(=O)N(C)c1cnc(Nc3ccc4cccc(C(F)(F)F)c4n3)cc12` (single isomer, unassigned) [Example 1, 1-Ethyl-3-((1s,4s)-1′-(methyl-d3)-2′-oxo-5′-((8-(trifluoromethyl)quinolin-2-yl)amino)-1′,2′-dihydrospiro[cyclohexane-1,3′-pyrrolo[2,3-c]pyridin]-4-yl)urea, trifluoroacetate salt], the values for the IC50 in assay [1], in assay [2] and in assay [3] were at most 100 nM, over 2500 nM and over 2500 nM, respectively.
In the case of `[2H]C([2H])([2H])N1C(=O)C2(CCC(NC(=O)NCC)CC2)c2cc(Nc3ccc4cccc(C(F)(F)F)c4n3)ncc21` (single isomer, unassigned) [Example 1, 1-Ethyl-3-((1s,4s)-1′-(methyl-d3)-2′-oxo-5′-((8-(trifluoromethyl)quinolin-2-yl)amino)-1′,2′-dihydrospiro[cyclohexane-1,3′-pyrrolo[2,3-c]pyridin]-4-yl)urea, trifluoroacetate salt], the 50% inhibitory concentration (IC50) in assay [4] was at most 100 nM.
Still for that read-out and setting: for `CCNC(=O)NC1CCC2(CC1)C(=O)N(C)c1cnc(Nc3ccc4cccc(C(F)(F)F)c4n3)cc12` (single isomer, unassigned) [Example 2, 1-Ethyl-3-((1r,4r)-1′-(methyl-d3)-2′-oxo-5′-((8-(trifluoromethyl)quinolin-2-yl)amino)-1′,2′-dihydrospiro[cyclohexane-1,3′-pyrrolo[2,3-c]pyridin]-4-yl)urea, trifluoroacetate salt] the value was at most 100 nM.
With `[2H]C([2H])([2H])N1c2cnc(Nc3ccc4cccc(C(F)(F)F)c4n3)cc2[C@]2(C[C@@H](CNC(=O)OC)C2)C1=O` [Example 3, Methyl (((1r,3r)-1′-(methyl-d3)-2′-oxo-5′-((8-(trifluoromethyl)quinolin-2-yl)amino)-1′,2′-dihydrospiro[cyclobutane-1,3′-pyrrolo[2,3-c]pyridin]-3-yl)methyl)carbamate, trifluoroacetate salt], the IC50 in assay [1] was at most 100 nM; in assay [2], over 2500 nM.
As for `[2H]C([2H])([2H])N1c2cnc(Nc3ccc4cccc(C(F)(F)F)c4n3)cc2[C@]2(C[C@@H](CNC(=O)C3CC3)C2)C1=O` [Example 4, N-(((1r,3r)-1′-(Methyl-d3)-2′-oxo-5′-((8-(trifluoromethyl)quinolin-2-yl)amino)-1′,2′-dihydrospiro[cyclobutane-1,3′-pyrrolo[2,3-c]pyridin]-3-yl)methyl)cyclopropanecarboxamide, trifluoroacetate salt], the half-maximal inhibitory concentration (IC50) in assay [1] is at most 100 nM; in assay [2] it was over 2500 nM.
In the same order, the values of `[2H]C([2H])([2H])N1c2cnc(Nc3ccc4c(n3)c(-c3cnn(C(F)(F)F)c3)nn4C)cc2[C@]2(C[C@@H](CO)C2)C1=O` [Example 5, (1r,3r)-3-(Hydroxymethyl)-1′-(methyl-d3)-5′-((1-methyl-3-(1-(trifluoromethyl)-1H-pyrazol-4-yl)-1H-pyrazolo[4,3-b]pyridin-5-yl)amino)spiro[cyclobutane-1,3′-pyrrolo[2,3-c]pyridin]-2′(1′H)-one, trifluoroacetate salt] are at most 100 nM and over 2500 nM.
In the same order, the values of `[2H]C([2H])([2H])N1c2cnc(Nc3ccc4c(n3)c(-c3cnn(C(F)(F)F)c3)nn4C)cc2[C@]2(C[C@@H](CNC(=O)OC)C2)C1=O` [Example 6, Methyl (((1r,3r)-1′-(methyl-d3)-5′-((1-methyl-3-(1-(trifluoromethyl)-1H-pyrazol-4-yl)-1H-pyrazolo[4,3-b]pyridin-5-yl)amino)-2′-oxo-1′,2′-dihydrospiro[cyclobutane-1,3′-pyrrolo[2,3-c]pyridin]-3-yl)methyl)carbamate, trifluoroacetate salt] are at most 100 nM and over 2500 nM.
As to `[2H]C([2H])([2H])N1c2cnc(Nc3ccc4c(n3)c(-c3cnn(C(F)(F)F)c3)nn4C)cc2[C@]2(C[C@@H](CNC(=O)C3CC3)C2)C1=O` [Example 7, N-(((1r,3r)-1′-(Methyl-d3)-5′-((1-methyl-3-(1-(trifluoromethyl)-1H-pyrazol-4-yl)-1H-pyrazolo[4,3-b]pyridin-5-yl)amino)-2′-oxo-1′,2′-dihydrospiro[cyclobutane-1,3′-pyrrolo[2,3-c]pyridin]-3-yl)methyl)cyclopropanecarboxamide, trifluoroacetate salt], the 50% inhibitory concentration (IC50) in assay [1] was at most 100 nM; in assay [2], over 2500 nM.

The values above are taken from patent US20250101020A1, “SPIROCYCLIC LACTAM INHIBITORS” (Incyte Corporation, priority 2023, published 2025).
